Data as given in patent publication US8754226B2, “Piperidinyl-substituted lactams as GPR119 modulators” (Array BioPharma Inc., priority 2010, dated 2014).

Tested on: modified version of the GPR119 receptor (94% identity to human receptor)
Assay: cAMP production assay (LANCE cAMP kit, TR-FRET) in HEK-293 cells
Assay type: cell-based
Settings: for cAMP production in HEK-293 cells: HEK-293 cells stably expressing modified GPR119, test compounds 0.2 nM to 10 μM, one-hour incubation at ambient temperature; for Fold over baseline: increase in cAMP relative to basal levels, agonist activity if 1.5-fold or greater
Description: The assay utilized HEK-293 cells that stably express a modified version of the GPR119 receptor (94% identity to human receptor), under the control of a CMV promoter containing a tet-on element for tetracycline-inducible expression. GPR119 agonist-induced cyclic AMP (cAMP) production was measured in this cell line using the LANCE cAMP kit (Perkin Elmer, Waltham, Mass.). To generate a working stock of cells for the assay, cells were treated overnight with 1 μg/mL doxycycline at 37° C. in the presence of 5% CO2 to induce receptor expression. Cells were then harvested by enzymatic dissociation with 0.05% trypsin, resuspended in freezing medium (DMEM growth medium with 10% each of fetal bovine serum and DMSO), aliquoted and frozen at −80° C. On the day of the assay, frozen cells were thawed, washed 1× in PBS and resuspended in Hank's buffered salt solution (HBSS) containing 5 mM HEPES, 0.1% BSA and Alexa Fluor 647-conjugated anti-cAMP antibody (diluted 1:100). The cell suspension was then transferred to a Proxiplate Plus white 384-well assay plate (Perkin-Elmer) at 2000 cells/well. Test compounds at final concentrations ranging from 0.2 nM to 10 μM were added to the assay plate, followed by a one-hour incubation at ambient temperature (volume=10 μL/well). DMSO concentration was held constant at 0.5%. After incubation with test compounds, 10 μL of a detergent buffer containing a biotinylated cAMP/Europium-conjugated streptavidin complex (Europium-labeled cAMP tracer) were added to each well on the assay plate, followed by a 2-hour incubation at ambient temperature. During this incubation cAMP released from lysed cells competes with the Europium-labeled cAMP tracer for binding to the Alexa Fluor 647-conjugated antibody. […] Cellular cAMP levels were then determined by interpolation of raw signal data using a cAMP standard curve. Compounds were determined to have agonist activity if they stimulated a 1.5-fold or greater increase in cAMP relative to basal levels.

Cc1cc(N[C@H]2CCN(C3CCN(c4cnc(Cl)cn4)CC3)C2=O)cnc1S(C)(=O)=O (stereo in doubt) [Example 135, 1-(1-(5-chloropyrazin-2-yl)piperidin-4-yl)-3-(5-methyl-6-(methylsulfonyl)pyridin-3-ylamino)pyrrolidin-2-one]
cAMP production in HEK-293 cells: 31.0 nmol | Fold over baseline: 6.6

Cc1cc(N[C@H]2CCN(C3CCN(c4cnc(Cl)cn4)CC3)C2=O)c(F)cc1S(C)(=O)=O [Example 1, (S)-1-(1-(5-chloropyrazin-2-yl)piperidin-4-yl)-3-(2-fluoro-5-methyl-4-(methylsulfonyl)phenylamino)pyrrolidin-2-one]
cAMP production in HEK-293 cells: 23.5 nmol | Fold over baseline: 3.9

CCc1cnc(N2CCC(N3CC[C@H](Nc4cc(C)c(S(C)(=O)=O)cc4F)C3=O)CC2)cn1 [Example 2, (S)-1-(1-(5-ethylpyrazin-2-yl)piperidin-4-yl)-3-(2-fluoro-5-methyl-4-(methylsulfonyl)phenylamino)pyrrolidin-2-one]
cAMP production in HEK-293 cells: 27.9 nmol | Fold over baseline: 4.8

CS(=O)(=O)c1cc(F)c(N[C@H]2CCN(C3CCN(c4cnc(Cl)cn4)CC3)C2=O)cc1F [Example 3, (S)-1-(1-(5-chloropyrazin-2-yl)piperidin-4-yl)-3-(2,5-difluoro-4-(methylsulfonyl)phenylamino)pyrrolidin-2-one]
cAMP production in HEK-293 cells: 23.2 nmol | Fold over baseline: 5.0

CS(=O)(=O)c1ccc(N[C@H]2CCN(C3CCN(c4cnc(Cl)cn4)CC3)C2=O)c(F)c1 [Example 4, (S)-1-(1-(5-chloropyrazin-2-yl)piperidin-4-yl)-3-(2-fluoro-4-(methylsulfonyl)phenylamino)pyrrolidin-2-one]
cAMP production in HEK-293 cells: 27.3 nmol | Fold over baseline: 4.1

CCc1cnc(N2CCC(N3CC[C@H](Nc4cc(F)c(S(C)(=O)=O)cc4F)C3=O)CC2)nc1 [Example 5, (S)-3-(2,5-difluoro-4-(methyl-sulfonyl)phenylamino)-1-(1-(5-ethylpyrimidin-2-yl)piperidin-4-yl)pyrrolidin-2-one]
cAMP production in HEK-293 cells: 12.3 nmol | Fold over baseline: 2.2

CS(=O)(=O)c1cc(F)c(N[C@H]2CCN(C3CCN(c4ncc(Cl)cn4)CC3)C2=O)cc1F [Example 6, (S)-3-(2,5-difluoro-4-(methyl-sulfonyl)phenylamino)-1-(1-(5-chloropyrimidin-2-yl)piperidin-4-yl)pyrrolidin-2-one]
cAMP production in HEK-293 cells: 9.2 nmol | Fold over baseline: 1.8

CS(=O)(=O)c1ccc(N[C@H]2CCN(C3CCN(c4ncc(Br)cn4)CC3)C2=O)c(F)c1 [Example 7, (S)-1-(1-(5-bromopyrimidin-2-yl)piperidin-4-yl)-3-(2-fluoro-4-(methylsulfonyl)phenylamino)pyrrolidin-2-one]
cAMP production in HEK-293 cells: 7.7 nmol | Fold over baseline: 2.4

CS(=O)(=O)c1ccc(N[C@H]2CCN(C3CCN(c4ncc(C#N)cn4)CC3)C2=O)c(F)c1 [Example 8, (S)-2-(4-(3-(2-fluoro-4-(methylsulfonyl)phenylamino)-2-oxopyrrolidin-1-yl)piperidin-1-yl)pyrimidine-5-carbonitrile]
cAMP production in HEK-293 cells: 8.6 nmol | Fold over baseline: 2.5

CS(=O)(=O)c1ccc(N[C@H]2CCN(C3CCN(c4ncc(-c5ccccc5)cn4)CC3)C2=O)c(F)c1 [Example 9, (S)-3-(2-fluoro-4-(methyl-sulfonyl)phenylamino)-1-(1-(5-phenylpyrimidin-2-yl)piperidin-4-yl)pyrrolidin-2-one]
cAMP production in HEK-293 cells: 13.5 nmol | Fold over baseline: 2.3

CS(=O)(=O)c1ccc(N[C@H]2CCN(C3CCN(c4ncc(Cl)cn4)CC3)C2=O)c(F)c1 [Example 10, (S)-1-(1-(5-chloropyrimidin-2-yl)piperidin-4-yl)-3-(2-fluoro-4-(methylsulfonyl)phenylamino)pyrrolidin-2-one]
cAMP production in HEK-293 cells: 6.5 nmol | Fold over baseline: 2.1

CS(=O)(=O)c1cc(F)c(N[C@H]2CCN(C3CCN(c4cnc(C(F)(F)F)cn4)CC3)C2=O)cc1F [Example 11, (S)-3-(2,5-difluoro-4-(methylsulfonyl)phenylamino)-1-(1-(5-(trifluoromethyl)pyrazin-2-yl)piperidin-4-yl)pyrrolidin-2-one]
cAMP production in HEK-293 cells: 27.1 nmol | Fold over baseline: 3.4

CS(=O)(=O)c1ccc(N[C@H]2CCN(C3CCN(c4cnc(Br)cn4)CC3)C2=O)c(F)c1 [Example 12, (S)-1-(1-(5-bromopyrazin-2-yl)piperidin-4-yl)-3-(2-fluoro-4-(methylsulfonyl)phenyl-amino)pyrrolidin-2-one]
cAMP production in HEK-293 cells: 23.4 nmol | Fold over baseline: 3.8

CS(=O)(=O)c1ccc(N[C@H]2CCN(C3CCN(c4cnc(C(F)(F)F)cn4)CC3)C2=O)c(F)c1 [Example 13, (S)-3-(2-fluoro-4-(methylsulfonyl)phenylamino)-1-(1-(5-(trifluoromethyl)pyrazin-2-yl)piperidin-4-yl)pyrrolidin-2-one]
cAMP production in HEK-293 cells: 24.8 nmol | Fold over baseline: 4.4

CS(=O)(=O)c1ccc(N[C@H]2CCN(C3CCN(c4cnc(C#N)cn4)CC3)C2=O)c(F)c1 [Example 14, (S)-5-(4-(3-(2-fluoro-4-(methylsulfonyl)phenylamino)-2-oxopyrrolidin-1-yl)piperidin-1-yl)pyrazine-2-carbonitrile]
cAMP production in HEK-293 cells: 32.3 nmol | Fold over baseline: 5.5

CS(=O)(=O)c1cc(F)c(N[C@H]2CCN(C3CCN(c4cnc(Br)cn4)CC3)C2=O)cc1F [Example 15, (S)-1-(1-(5-bromopyrazin-2-yl)piperidin-4-yl)-3-(2,5-difluoro-4-(methylsulfonyl)phenylamino)pyrrolidin-2-one]
cAMP production in HEK-293 cells: 24.2 nmol | Fold over baseline: 4.2

CS(=O)(=O)c1cc(F)c(N[C@H]2CCN(C3CCN(c4cnc(C#N)cn4)CC3)C2=O)cc1F [Example 16, (S)-5-(4-(3-(2,5-difluoro-4-(methylsulfonyl)phenylamino)-2-oxopyrrolidin-1-yl)piperidin-1-yl)pyrazine-2-carbonitrile]
cAMP production in HEK-293 cells: 21.4 nmol | Fold over baseline: 4.0

CCS(=O)(=O)c1ccc(N[C@H]2CCN(C3CCN(c4cnc(Cl)cn4)CC3)C2=O)c(F)c1 [Example 17, (S)-1-(1-(5-chloropyrazin-2-yl)piperidin-4-yl)-3-(4-(ethylsulfonyl)-2-fluorophenylamino)pyrrolidin-2-one]
cAMP production in HEK-293 cells: 107.3 nmol | Fold over baseline: 5.3

CS(=O)(=O)c1ccc(N[C@H]2CCN(C3CCN(c4cncc(Cl)n4)CC3)C2=O)c(F)c1 [Example 18, (S)-1-(1-(6-chloropyrazin-2-yl)piperidin-4-yl)-3-(2-fluoro-4-(methylsulfonyl)phenylamino) pyrrolidin-2-one]
cAMP production in HEK-293 cells: 7.7 nmol | Fold over baseline: 1.8

CCc1cnc(N2CCC(N3CC[C@H](Nc4ccc(S(C)(=O)=O)cc4F)C3=O)CC2)nc1 [Example 19, (S)-1-(1-(5-ethylpyrimidin-2-yl)piperidin-4-yl)-3-(2-fluoro-4 (methylsulfonyl)phenylamino) pyrrolidin-2-one]
cAMP production in HEK-293 cells: 9.9 nmol | Fold over baseline: 2.1
